# From ChEMBL document CHEMBL5579834 (Eur J Med Chem, 2024)
# Experiments:
# [1] = system: Ebolavirus; assay: Antiviral activity against HIV-based lentiviral pseudotyped Ebolavirus harboring mucin domain deleted GP infected in HEK293T cells assessed as inhibition of viral entry preincubated with virus for 1 hr followed by cell infection and measured after 48 hrs by luminescence assay; assay type: functional, organism-based; settings: Orthoebolavirus, HEK-293T
# [2] = system: Marburgvirus; assay: Antiviral activity against HIV-based lentiviral pseudotyped Marburgvirus harboring mucin domain deleted GP infected in HEK293T cells assessed as inhibition of viral entry preincubated with virus for 1 hr followed by cell infection and measured after 48 hrs by luminescence assay; assay type: functional, organism-based; settings: Orthomarburgvirus, HEK-293T
# [3] = Selectivity index, ratio of CC50 for HEK293T cells to IC50 for antiviral activity against HIV-based lentiviral pseudotyped Ebolavirus harboring mucin domain deleted GP infected in HEK293T cells assessed as inhibition of viral entry; assay type: toxicity, cell-based; settings: human, read-out: Ratio CC50/IC50
# [4] = Selectivity index, ratio of CC50 for HEK293T cells to IC50 for antiviral activity against HIV-based lentiviral pseudotyped Marburgvirus harboring mucin domain deleted GP infected in HEK293T cells assessed as inhibition of viral entry; assay type: toxicity, cell-based; settings: human, read-out: Ratio CC50/IC50
# [5] = system: Ebolavirus; assay: Antiviral activity against pseudotyped Ebolavirus harboring GP; assay type: functional, organism-based; settings: Orthoebolavirus
SMILES,IC50 [1] [µM],IC50 [2] [µM],selectivity ratio [3],selectivity ratio [4],IC50 [5] [µM]
CN1CCN(CCCC(=O)O[C@H]2C(C)(C)[C@H]3CC[C@]2(C)C3)CC1,3.1,20.7,–,–,–
CC1(C)[C@H]2CC[C@](C)(C2)[C@H]1OC(=O)CN1CCOCC1,13,213,22,1,–
CN1CCN(CC(=O)O[C@H]2C(C)(C)[C@H]3CC[C@]2(C)C3)CC1,20.4,27.5,–,–,–
CCN1CCN(CCC(=O)O[C@H]2C(C)(C)[C@H]3CC[C@]2(C)C3)CC1,8.1,25,44,14,–
CC1(C)[C@H]2CC[C@](C)(C2)[C@H]1OC(=O)CCCN1CCCCC1,1.9,13,–,–,–
CN1CCN(CCC(=O)O[C@H]2C(C)(C)[C@H]3CC[C@]2(C)C3)CC1,10.1,29,45,16,–
C[C@@H]1[C@H]2C[C@@H](C[C@H]1OC(=O)CCN1CCN(c3ccccc3)CC1)C2(C)C,54,27,2,4,–
C[C@@H]1[C@H]2C[C@@H](C[C@H]1OC(=O)CCCN1CCN(c3ccccc3)CC1)C2(C)C,7.8,18,8,3,–
C[C@@H]1[C@H]2C[C@@H](C[C@H]1OC(=O)CCN1CCN(C)CC1)C2(C)C,4.9,13.9,–,–,–
CCN1CCN(CCCC(=O)O[C@H]2C(C)(C)[C@H]3CC[C@]2(C)C3)CC1,2.4,11.3,–,–,–
CCN1CCN(S(=O)(=O)C[C@]23CC[C@H](CC2=O)C3(C)C)CC1,–,–,–,–,91
C[C@@H]1[C@H]2C[C@@H](C[C@H]1OC(=O)CN1CCN(C)CC1)C2(C)C,4.8,47.6,–,–,–
C[C@@H]1[C@H]2C[C@@H](C[C@H]1OC(=O)CN1CCN(c3ccccc3)CC1)C2(C)C,9,25,6,2,–
CC1CCN(CC(=O)O[C@H]2C(C)(C)[C@H]3CC[C@]2(C)C3)CC1,20.5,20.4,–,–,–
CC1(C)[C@H]2CC[C@](C)(C2)[C@H]1OC(=O)CCCN1CCN(c2ccccc2)CC1,0.54,6,22,10,–
CC1(C)[C@H]2CC[C@](C)(C2)[C@H]1OC(=O)CCN1CCN(c2ccccc2)CC1,10,7.3,2,3,–
CCN1CCN(CC(=O)O[C@H]2C(C)(C)[C@H]3CC[C@]2(C)C3)CC1,9.1,30.1,–,–,–
CC1(C)[C@H]2CC[C@](C)(C2)[C@H]1OC(=O)CN1CCCCC1,17.1,164,13,1,–

SMILES,IC50 [1] [µM],IC50 [2] [µM],selectivity ratio [3],selectivity ratio [4],IC50 [5] [µM]
CC1(C)[C@@H]2CC[C@@]1(CS(=O)(=O)N1CCCCC1)C(=O)C2,–,–,–,–,60
C[C@@H]1[C@H]2C[C@@H](C[C@H]1OC(=O)CCN1CCCCC1)C2(C)C,14.3,24,23,13,–
CC1CCN(CCC(=O)O[C@H]2C(C)(C)[C@H]3CC[C@]2(C)C3)CC1,3.9,22,48,8,–
CC1(C)[C@H]2CC[C@](C)(C2)[C@H]1OC(=O)CCCN1CCOCC1,6.5,68,40,3,–
CC1(C)[C@H]2CC[C@](C)(C2)[C@H]1OC(=O)CCN1CCCCC1,17,31,20,11,–
CC1(C)[C@H]2CC[C@](C)(C2)[C@H]1OC(=O)CN1CCN(c2ccccc2)CC1,5.8,56,17,1,–
C[C@@H]1[C@H]2C[C@@H](C[C@H]1OC(=O)CCCN1CCN(C)CC1)C2(C)C,2.8,24,58,6,–
CC1(C)[C@@H]2CC[C@@]1(CS(=O)(=O)N1CCOCC1)C(=O)C2,–,–,–,–,0.9
C[C@@H]1[C@H]2C[C@@H](C[C@H]1OC(=O)CN1CCOCC1)C2(C)C,106,–,1,–,–
CN1CCN(S(=O)(=O)C[C@]23CC[C@H](CC2=O)C3(C)C)CC1,–,–,–,–,540
C[C@@H]1[C@H]2C[C@@H](C[C@H]1OC(=O)CCCN1CCCCC1)C2(C)C,4,9,30,13,–
C[C@@H]1[C@H]2C[C@@H](C[C@H]1OC(=O)CN1CCCCC1)C2(C)C,42,107,7,3,–
C[C@@H]1[C@H]2C[C@@H](C[C@H]1OC(=O)CCN1CCOCC1)C2(C)C,57,156,4,1,–
C[C@@H]1[C@H]2C[C@@H](C[C@H]1OC(=O)CCCN1CCOCC1)C2(C)C,21,39,5,2,–
CC1(C)[C@H]2CC[C@](C)(C2)[C@H]1OC(=O)CCN1CCOCC1,57.9,64.4,–,–,–
CC1CCN(CCCC(=O)O[C@H]2C(C)(C)[C@H]3CC[C@]2(C)C3)CC1,2.8,26.4,–,–,–
CN(C)CCOc1ccc(/C(=C(/CCCl)c2ccccc2)c2ccccc2)cc1 [TOREMIFENE],0.2,0.7,–,–,–
